Test results taken from PubChem BioAssay AID248 (DTP/NCI, 2004).
Values joined by “and” are separate entries in the source; they are usually repeats but may differ in a detail not shown here. Equal entries are not always repeated. Inconclusive results and toxic doses are left out. Cut-off read from the data, not from the text of the source: active = T/C of 150% or more; inactive = T/C below 125%.

System: L1210 leukemia ip in BDF1 mice, survival T/C
Test: NCI In Vivo Anticancer Drug Screen. Data for tumor model L1210 Leukemia (intraperitoneal) in B6D2F1 (BDF1) mice
Settings: endpoint: mean survival time, higher = longer survival
In short: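 Transplantable tumor model; survival measured in treated vs vehicle control mice. Value = treated/control.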

[1] = dose: 100.0 mg/kg/injection, schedule: Q01DX001 (ip), vehicle: saline
[2] = dose: 100.0 mg/kg/injection, schedule: Q01DX009 (ip), vehicle: saline
[3] = dose: 200.0 mg/kg/injection, schedule: Q01DX001 (ip), vehicle: saline
[4] = dose: 400.0 mg/kg/injection, schedule: Q01DX001 (ip), vehicle: saline
[5] = dose: 100.0 mg/kg/injection, schedule: Q01DX009 (ip), vehicle: saline with Tween-80
[6] = dose: 200.0 mg/kg/injection, schedule: Q01DX009 (ip), vehicle: saline with Tween-80
[7] = dose: 400.0 mg/kg/injection, schedule: Q01DX009 (ip), vehicle: saline with Tween-80
[8] = dose: 100.0 mg/kg/injection, schedule: Q01DX001 (ip), vehicle: Klucel (hydroxypropylcellulose) (HPC)
[9] = dose: 200.0 mg/kg/injection, schedule: Q01DX001 (ip), vehicle: Klucel (hydroxypropylcellulose) (HPC)
[10] = dose: 400.0 mg/kg/injection, schedule: Q01DX001 (ip), vehicle: Klucel (hydroxypropylcellulose) (HPC)
[11] = dose: 100.0 mg/kg/injection, schedule: Q01DX009 (ip), vehicle: Klucel (hydroxypropylcellulose) (HPC)
[12] = dose: 200.0 mg/kg/injection, schedule: Q01DX009 (ip), vehicle: Klucel (hydroxypropylcellulose) (HPC)
[13] = dose: 200.0 mg/kg/injection, schedule: Q04DX003 (ip), vehicle: Klucel (hydroxypropylcellulose) (HPC)
[14] = dose: 12.5 mg/kg/injection, schedule: Q01DX009 (ip), vehicle: Klucel (hydroxypropylcellulose) (HPC)
[15] = dose: 25.0 mg/kg/injection, schedule: Q01DX009 (ip), vehicle: Klucel (hydroxypropylcellulose) (HPC)
[16] = dose: 50.0 mg/kg/injection, schedule: Q01DX009 (ip), vehicle: Klucel (hydroxypropylcellulose) (HPC)
[17] = dose: 50.0 mg/kg/injection, schedule: Q01DX009 (ip), vehicle: saline
[18] = dose: 100.0 mg/kg/injection, schedule: Q04DX003 (ip), vehicle: saline
[19] = dose: 200.0 mg/kg/injection, schedule: Q04DX003 (ip), vehicle: saline
[20] = dose: 200.0 mg/kg/injection, schedule: Q01DX009 (ip), vehicle: saline
[21] = dose: 400.0 mg/kg/injection, schedule: Q04DX003 (ip), vehicle: saline

Measured: T/C

CN(C)/N=C1\CCc2ccccc21
inactive: [1] 106 % of control | [2] 102 % of control | [3] 113 % of control | [4] 101 % of control

c1ccc(-n2ncn[n+]2-c2ccccc2)cc1
inactive: dose: 10.0 mg/kg/injection, schedule: Q01DX001 (ip), vehicle: saline 98 % of control | dose: 20.0 mg/kg/injection, schedule: Q01DX001 (ip), vehicle: saline 90 % of control | dose: 40.0 mg/kg/injection, schedule: Q01DX001 (ip), vehicle: saline 95 % of control | dose: 80.0 mg/kg/injection, schedule: Q01DX001 (ip), vehicle: saline 109 % of control

CC1=C(C)CC(/C(=N\Nc2ccc([N+](=O)[O-])cc2[N+](=O)[O-])c2ccccc2)CC1 (stereo not given)
inactive: dose: 100.0 mg/kg/injection, schedule: Q01DX001 (ip), vehicle: saline with Tween-80 89 % of control | dose: 200.0 mg/kg/injection, schedule: Q01DX001 (ip), vehicle: saline with Tween-80 89 % of control | dose: 400.0 mg/kg/injection, schedule: Q01DX001 (ip), vehicle: saline with Tween-80 96 % of control

O=C(/C=C/c1ccc(Br)cc1)c1ccc(Cl)cc1
inactive: [5] 96 % of control | dose: 100.0 mg/kg/injection, schedule: Q04DX003 (ip), vehicle: saline with Tween-80 96 % of control | [6] 96 % of control | dose: 200.0 mg/kg/injection, schedule: Q04DX003 (ip), vehicle: saline with Tween-80 91 % of control | [7] 94 % of control | dose: 400.0 mg/kg/injection, schedule: Q04DX003 (ip), vehicle: saline with Tween-80 92 % of control

O=C(Nc1cccc(CO)c1)c1ccc(S(=O)(=O)F)cc1
inactive: [8] 99 % of control | [9] 89 % of control | [10] 94 % of control

CCOC(=O)C(C(=O)OCC)C(C)(C)Cc1ccccc1
inactive: [11] 92 % of control | [12] 100 % of control | [13] 96 % of control | dose: 400.0 mg/kg/injection, schedule: Q01DX009 (ip), vehicle: Klucel (hydroxypropylcellulose) (HPC) 93 % of control | dose: 400.0 mg/kg/injection, schedule: Q04DX003 (ip), vehicle: Klucel (hydroxypropylcellulose) (HPC) 93 % of control

CC(C)(O)C(C)(O)c1cccc(Cl)c1 (stereo not given)
inactive: [14] 100 % of control | [15] 109 % of control | dose: 25.0 mg/kg/injection, schedule: Q04DX003 (ip), vehicle: Klucel (hydroxypropylcellulose) (HPC) 91 % of control | [16] 100 % of control | dose: 50.0 mg/kg/injection, schedule: Q04DX003 (ip), vehicle: Klucel (hydroxypropylcellulose) (HPC) 93 % of control | [11] 100 % of control | dose: 100.0 mg/kg/injection, schedule: Q04DX003 (ip), vehicle: Klucel (hydroxypropylcellulose) (HPC) 96 % of control | [12] 98 % of control | [13] 90 % of control

COC1C(C(=O)O)=CC=CC1OC(C)=O (stereo not given)
inactive: [1] 90 % of control | [3] 102 % of control | [4] 104 % of control

CCNC1(c2ccc(Cl)cc2)CCCCC1=O (stereo not given)
inactive: [17] 105 % of control | [2] 102 % of control | [18] 104 % of control | [19] 106 % of control

CCN(CCNS(C)(=O)=O)c1ccc(N)c(C)c1
inactive: dose: 3.12 mg/kg/injection, schedule: Q01DX009 (ip), vehicle: saline 101 % of control | dose: 6.25 mg/kg/injection, schedule: Q01DX009 (ip), vehicle: saline 91 % of control | dose: 12.5 mg/kg/injection, schedule: Q01DX009 (ip), vehicle: saline 99 % of control and 92 % of control

O=C1NC(=O)c2ccccc21
inactive: dose: 25.0 mg/kg/injection, schedule: Q01DX009 (ip), vehicle: saline 94 % of control | [17] 99 % of control | [2] 94 % of control and 96 % of control | [18] 95 % of control | [20] 95 % of control and 108 % of control | [19] 98 % of control | dose: 400.0 mg/kg/injection, schedule: Q01DX009 (ip), vehicle: saline 95 % of control and 96 % of control | [21] 106 % of control

N#C/C(=C/C=C/c1ccccc1)c1cccc([N+](=O)[O-])c1
inactive: [5] 108 % of control | [6] 91 % of control | [7] 100 % of control

CC(=O)CC(C)(C)C
inactive: [1] 102 % of control | [3] 98 % of control | [4] 91 % of control

CCO/C=N/c1onc(C)c1C#N
inactive: dose: 100.0 mg/kg/injection, schedule: Q04DX003 (ip), vehicle: carboxymethylcellulose (CMC) 102 % of control | dose: 200.0 mg/kg/injection, schedule: Q04DX003 (ip), vehicle: carboxymethylcellulose (CMC) 100 % of control | dose: 400.0 mg/kg/injection, schedule: Q04DX003 (ip), vehicle: carboxymethylcellulose (CMC) 90 % of control

O=C1CCN2CCCc3cccc1c32
inactive: dose: 100.0 mg/kg/injection, schedule: Q01DX001 (ip), vehicle: other 100 % of control | dose: 200.0 mg/kg/injection, schedule: Q01DX001 (ip), vehicle: other 97 % of control | dose: 400.0 mg/kg/injection, schedule: Q01DX001 (ip), vehicle: other 102 % of control

Cc1cc(C)c(S(=O)(=O)Cc2cc(Cl)cc(Cl)c2O)c(C)c1
inactive: [17] 86 % of control | dose: 50.0 mg/kg/injection, schedule: Q04DX003 (ip), vehicle: acetone 93 % of control | [1] 88 % of control | [2] 105 % of control | dose: 100.0 mg/kg/injection, schedule: Q04DX003 (ip), vehicle: acetone 89 % of control | [3] 87 % of control | [20] 91 % of control | dose: 200.0 mg/kg/injection, schedule: Q04DX003 (ip), vehicle: acetone 91 % of control

CC(=O)OC1C=C2CCC3C(CCC4(C)C(OC(C)=O)CCC34)C2(C)CC1 (stereo not given)
inactive: [14] 92 % of control | [15] 92 % of control | [16] 90 % of control | dose: 75.0 mg/kg/injection, schedule: Q01DX009 (ip), vehicle: Klucel (hydroxypropylcellulose) (HPC) 101 % of control | dose: 115.0 mg/kg/injection, schedule: Q01DX009 (ip), vehicle: Klucel (hydroxypropylcellulose) (HPC) 98 % of control | dose: 170.0 mg/kg/injection, schedule: Q01DX009 (ip), vehicle: Klucel (hydroxypropylcellulose) (HPC) 95 % of control

CC(C)CC(C)OC(=O)CCl (stereo not given)
inactive: [18] 107 % of control | [19] 105 % of control | [21] 88 % of control

NC(N)=N/N=C/NN/C=N/N=C(N)N
inactive: dose: 15.0 mg/kg/injection, schedule: Q01DX Z (ip), vehicle: saline 93 % of control | dose: 30.0 mg/kg/injection, schedule: Q01DX Z (ip), vehicle: saline 104 % of control | dose: 60.0 mg/kg/injection, schedule: Q01DX Z (ip), vehicle: saline 115 % of control | dose: 120.0 mg/kg/injection, schedule: Q01DX Z (oral), vehicle: saline 95 % of control

Cc1nc(N)nc(N)c1CCCOc1ccc(N)cc1
inactive: [8] 103 % of control | [9] 97 % of control | [10] 100 % of control

Cc1cccc2c(N=Nc3ccccc3[N+](=O)[O-])c(O)[nH]c12
inactive: [1] 101 % of control | [4] 97 % of control
